Measurements reported in US9144241B2, “Synergistic pesticidal compositions and related methods” (Dow AgroSciences LLC, priority 2013, dated 2015).

Test system: diamondback moth, Plutella xylostella
Test: Diamondback moth bioassay on track-sprayed cabbage plants/leaf discs; synergy by Colby's equation
Format: in vivo
Conditions: single active, second instar larvae, 400 L/Ha spray
Source text: The method described in Colby S. R., “Calculating Synergistic and Antagonistic Responses of Herbicide Combinations,” Weeds, 1967, 15, 20-22 was used to determine an existence of synergic effect between the acetyl CoA carboxylase inhibitor compound and the pesticide (I), (II), or any agriculturally acceptable salt thereof in the formulated pesticidal composition.
Three second instar diamondback moth, Plutella xylostella, were infested onto each leaf disc. […] The “Colby's Expected Action” was calculated using Colby's equation as discussed previously.
Three second instar diamondback moth, Plutella xylostella, were infested onto each leaf disc.
The percent control may be determined some time after treatment.

CCN(C(=O)CCSCCC(F)(F)F)c1cn(-c2cccnc2)nc1Cl [Compound I, N-(3-chloro-1-(pyridin-3-yl)-1H-pyrazol-4-yl)-N-ethyl-3-((3,3,3-trifluoropropyl)thio) propanamide]
% Control Three Days After Treatment (dose rate 0.000625 weight %): 0% | % Control Three Days After Treatment (dose rate 0.0025 weight %): no activity

CCN(C(=O)CC[S+]([O-])CCC(F)(F)F)c1cn(-c2cccnc2)nc1Cl (centres unmarked) [Compound II, N-(3-chloro-1-(pyridin-3-yl)-1H-pyrazol-4-yl)-N-ethyl-3-((3,3,3-trifluoropropyl)sulfinyl)propanamide]
% Control Three Days After Treatment (dose rate 0.000625 weight %): 0%

CCOC(=O)OC1=C(c2cc(C)ccc2C)C(=O)N[C@]12CC[C@@H](OC)CC2 [Spirotetramat, cis-3-(2,5-dimethylphenyl)-8-methoxy-2-oxo-1-azaspiro[4.5]dec-3-en-4-yl ethylcarbonate, reference compound]
% Control Three Days After Treatment (dose rate 0.0015625 weight %): 0% | % Control Three Days After Treatment (dose rate 0.0015625 weight %, listed as spirotetramat): no activity
